In publication PMC6234764, “First Insights Into Within Host Translocation of the Bacillus cereus Toxin Cereulide Using a Porcine Model” (Frontiers in Microbiology, 2018):

Tests used:
Type in all cases: in vivo, pig
Large White piglets = test: Clinical signs after oral administration of cereulide
Method: In each experiment five Large White piglets, weighing 10–15 kg, were used. All piglets were derived from one single farm in Austria. The animals were placed in metabolic cages 3 days before start of the experiment for acclimatization. Water ad libitum and feed (Ferkelkorn, Garant Tiernahrung, Pöchlarn, Austria) were available before and during the whole experiment.
(§1) A total of four experiments, each including four treated animals and one control pig, was performed to investigate the action of cereulide on piglets after oral intake of cereulide. Pigs were either challenged orally with a single dose (acute trials) or with daily over a period of 7 days (chronic trial) (see Table 1). One hour before cereulide toxin administration blood samples were taken by puncturing the anterior Vena cava and piglets were weighed for calculation of the cereulide concentration (t = 0 h). In the intoxication experiment with 150 μg kg^-1 blood samples were taken 68 h before the experiment to reduce the distress for the animals at the start day of the experiments. Blood-chemical, immunological, and histological analyses of selected organs as well as quantification of cereulide in organs, tissues, urine and feces were carried out as detailed below.
(§2) On body weight calculated amounts of cereulide, dissolved in ethanol, were mixed with milk (UHT milk; 3.5% fat), and fed to four piglets. Control piglets were fed with milk supplemented with similar ethanol concentrations as the experimental piglets. The experiment started after the uptake of the whole milk cereulide mixture. The milk was checked for bacterial contamination prior to the experiment.
(§3) After oral administration of cereulide, piglets were monitored for unusual behavior and examined physically with special respect on rectal body temperature as well as pulse and respiration rate, every 2–3 h. Blood samples were taken from the Vena cava cranialis. Urine and feces were collected during the whole experiment and stored at -80°C. After the experiment pigs were anaesthetized by intramuscular injection of a bolus of ketamine (10 mg kg^-1) and azaperone (1.3 mg kg^-1). When sedation was deep enough cerebrospinal fluid (liquor) was taken by lumbar puncture. Finally, pigs were euthanized by intracardial injection of T61®. Animals were then necropsied and parts of the following organs, tissues or body fluids were taken for SIDA-MS analysis: liver, lung, heart, kidney, brain, spleen, small and large intestine, lymph nodes, gastric as well as intestinal contents, skeletal muscle, and abdominal and subcutaneous fat. Samples of liver, lung, heart, kidney, brain, spleen, small, and large intestine were collected for histological analysis.

piglets = test: Blood analysis: hematology and clinical chemistry
Method: as §1, §3
One milliliter EDTA-stabilized blood and 3 mL heparin-stabilized blood (worked up to serum) were screened for erythrocyte number, hemoglobin, hematocrit, mean cellular volume (MCV), mean cellular hemoglobin (MCH), mean cellular hemoglobin concentration (MCHC), leukocyte number, mean peroxidase index (MPXI), numbers of monocytes, lymphocytes, eosinophils, basophils, lymphoblasts, juvenile and segmented neutrophils, as well as glucose, urea, creatinine, total protein, aspartate amino transferase (AST), alanine amino transferase (ALT), […] (GLDH), gamma glutamyl transferase (GGT), bile acid, lipase, creatine kinase, sodium, potassium, chloride, calcium, and phosphorus at the central diagnostic unit of the University of Veterinary Medicine Vienna.

[1] = Cereulide in blood, SIDA-MS
Method: as §1, §2, §3
Collected blood samples, urine, feces, tissue and organs were freeze dried and stored at -80°C until analysis. Before extraction, liquid nitrogen was added to frozen samples and they were crushed to a powder using a mortar. […] Finally, samples were membrane filtrated (0.2 μm; PTFE membrane; Phenomenex, Aschaffenburg, Germany) and analyzed by means of LC-MS/MS as described previously ([Bauer et al., 2010]). […]

[2] = oral doses 10 to 150 μg kg^-1, summary in discussion

CC(C)C[C@H]1OC(=O)[C@H](C(C)C)NC(=O)[C@H](C(C)C)OC(=O)[C@@H](C)NC(=O)[C@@H](CC(C)C)OC(=O)[C@H](C(C)C)NC(=O)[C@H](C(C)C)OC(=O)[C@@H](C)NC(=O)[C@@H](CC(C)C)OC(=O)[C@H](C(C)C)NC(=O)[C@H](C(C)C)OC(=O)[C@@H](C)NC1=O [cereulide]
Pulse and respiration rates, inner body temperature (Large White piglets; all animals, except during periods of seizures and convulsions): normal pulse and respiration rates as well as inner body temperature | Onset of seizures (Large White piglets; daily oral dose 10 μg kg^-1 for 7 days, all four pigs to varying extents): 2 to 4 h | Onset of transient depressiveness (Large White piglets; daily oral dose 10 μg kg^-1 for 7 days, all piglets): 2 to 6 h | Emesis in the pigs (Large White piglets; oral doses 10 to 150 μg kg^-1): only rarely observed | Onset of observed symptoms in the piglets (Large White piglets; [2]): 1.5 to 3 h | Time after which symptoms ceased (Large White piglets; [2]): 7 to 9 h | Duration of transient depressive behavior (Large White piglets; single oral dose 10 μg kg^-1, all treated piglets): 4.5 to 6 h | Time of vomiting after toxin intake (Large White piglets; single oral dose 10 μg kg^-1, one animal): 11 h | Time after which all symptoms disappeared (Large White piglets; single oral dose 30 μg kg^-1): 7 to 9 h | Onset of shivering (Large White piglets; single oral dose 30 μg kg^-1, 2/4 piglets, seizures an additional hour later): 1 h | Onset of seizures after cereulide intake (Large White piglets; single oral dose 30 μg kg^-1, remaining two piglets): 4 to 6 h | Onset of lethargic behavior (Large White piglets; single oral dose 150 μg kg^-1, all treated piglets): 1.5 to 2 h | Time to gradual recovery (Large White piglets; single oral dose 150 μg kg^-1, three of the four piglets): 6 to 7 h | Influence on blood cell composition and biochemical markers in blood (piglets; acute trials, samples before and after 8 (only 150 μg kg^-1), 24 and 48 h): no significant influence | Creatine kinase (CK) (piglets; daily oral dose 10 μg kg^-1, after 3 days, all treated pigs): increase | AST levels (piglets; daily oral dose 10 μg kg^-1, two out of four treated pigs after 3 and 7 days): elevated | Creatine kinase (CK) levels (piglets; single oral dose 30 μg kg^-1): increased | Creatine kinase (CK) levels (piglets; single oral dose 150 μg kg^-1): increased | Leukocytes (piglets; single oral dose 150 μg kg^-1, all animals): increased levels | Aspartate aminotransferase (AST) (piglets; single oral dose 150 μg kg^-1, three out of four pigs): transient increase | Detectability of cereulide in blood ([1]; single oral dose 150 μg kg^-1, after 24–48 h): detectable in three out of four pigs | Highest concentration of cereulide in the blood ([1]; single oral dose 150 μg kg^-1, one animal): 45 ng cereulide mL^-1 | Time of first detection in blood ([1]; single oral dose 150 μg kg^-1, pig with highest blood levels): 8 h | Maximum cereulide in blood after 24 h ([1]; single oral dose 150 μg kg^-1, pig with lowest abdominal fat level, 24 h): 45 ng cereulide mL^-1
